Columns and labels:
[1] = system: MDA-MB-231 (breast cancer); experiment: MTT antiproliferative assay, MDA-MB-231; type: cell-based; conditions: Homo sapiens, MDA-MB-231; MTT, 48 h; read-out: Antiproliferative Activity GI50, Breast MDA-MB-231
Procedure: (§1) Briefly, the tumor cells (1×10^4 cells/well) were seeded in 96-well microtiter plates and incubated for 24 h at 37° C. Following incubation, the media was replaced with fresh media containing the above compounds at concentrations ranging from 1 μM to 1 pM diluted in DMSO and incubated for an additional 48 h. Drugs were run in duplicate or triplicate and control cells received fresh media with DMSO concentration equivalent to the treatment groups. […] After aspirating the culture medium, 200 μL of DMSO was added to dissolve the precipitate and the resulting solution was measured for absorbance at 570 nm with a reference wavelength of 690 nm using a microplate reader (Infinite M200 Pro TECAN).

Recombinant human HDAC4 = target: T1, Recombinant human HDAC4 (Homo sapiens, UniProt P56524); experiment: HDAC-Glo I/II assay, HDAC4; type: biochemical; conditions: Class IIa HDAC; compounds reduced by TCEP prior to assay; read-out: IC50 of HDAC4
T1 construct: purchased BPS Bioscience Inc
Procedure: (§2) The purified compounds of all fragments and natural product derivatives were evaluated for inhibitory effects on three different classes of HDAC proteins (class I, IIa, and IIb). […] All activity was determined by using a fluorescence-based in vitro assay. Class I HDAC proteins that were evaluated were HDAC1, HDAC2, HDAC3, HDAC8, HDAC4, and HDAC6. Class IIa HDAC protein were HDAC4 and the Class IIb HDAC protein were HDAC6.
(§3) HDAC-Glo™ I/II Assay and Screening System (Promega) was used to determine the HDAC inhibitory activity. Recombinant human HDAC1, HDAC2, HDAC3, HDAC4, HDAC6 and HDAC8 were purchased from BPS Bioscience Inc. The inhibitory activities of the test compounds against recombinant HDAC were performed according to reagent suppliers' protocols.
(§4) All test compounds were firstly dissolved in DMSO to make 10 mM stock solution. A certain amount of stock solution was diluted to 1 mM by DMSO and then reduced by tris(2-carboxyethyl)phosphine hydrochloride (TCEP) in a molar ration of 1:1.5 for 20 min at ambient temperature prior to being assayed. After reduction, a series of fivefold dilutions of each reduced compound were prepared with HDAC-Glo buffer and 25 μL of each dilution was added into a well on a 96-well plate. HDAC enzymes were diluted to the desired concentrations with HDAC-Glo buffer and 25 μL of each diluted enzyme was dispensed into a well to mix with 25 μL of testing compound at room temperature for 30-60 seconds. After the reaction mixture had been incubated at room temperature for 1 hour, 50 μL of HDAC-Glo reagent was added to each reaction well and mixed up for 30-60 seconds. Finally, the plate was incubated at room temperature for an additional 30 minutes before the luminescence was measured on a Synergy HT plate reader (Bio-Tek). The luminescence intensity data were analyzed using GraphPad Prism 5 (GraphPad Software). In the absence of any test compound, the luminescence intensity (I100) in each data set was defined as 100% activity. In the absence of both of HDAC enzymes and test compound, the luminescence intensity (I0) in each data set was defined as 0% activity. The relative activity (%) in the presence of each compound was calculated according to the following equation: % activity=(I−I0)/(I100−I0), where I=the luminescence intensity if a compound is present in the reaction. Experiments were performed in triplicate and the calculated mean values were used for plotting.

RFX393 (renal) = experiment: MTT antiproliferative assay, RFX393; type: cell-based; conditions: MTT, 48 h; read-out: Antiproliferative Activity GI50, Renal RFX393
Procedure: as §1

in vivo = conditions: BALB/c, mouse, in vivo, ip
Source text: BALB/c mice were purchased from The Jackson Laboratory (Bar Harbor, Me.) and used between 7 and 10 weeks of age. Mice were housed in a conventional animal vivarium and were given free access to food and water. All studies and procedures were approved by the Animal Care and Use Committee of the University of Wisconsin, Milwaukee.
Each animal was initially weighed using a digital scale and then intraperitoneally (IP) injected with the compounds (listed in Table 2). A single mouse was given a single IP dose of 200 mg/kg, body weight, a second mouse received a dose of 100 mg/kg and a third mouse received a single dose of 50 mg/kg. The mice were observed and weighed every other day for a period of 2 weeks. They were euthanized if they lost more than 20% of their body weight or if there were other signs of significant toxicity. […] This process was repeated until a tolerated dose was found, and the MTD value was determined.
To determine the MTD in vivo, the compounds listed above were injected intraperitoneally into BALB/c mice and morbidity and mortality were monitored over two weeks.

HeLa (cervical cancer) = experiment: MTT antiproliferative assay, HeLa; type: cell-based; conditions: Homo sapiens, MTT, 48 h, read-out: Antiproliferative Activity GI50, Cervical HeLa
Procedure: as §1

[2] = 10 mg/mL cpd in 20% DMSO/saline
COLO-205 (colon cancer) = experiment: MTT antiproliferative assay, COLO-205; type: cell-based; conditions: Homo sapiens, COLO 205; MTT, 48 h; read-out: Antiproliferative Activity GI50, Colon COLO-205
Procedure: as §1

HCT-116 (colon cancer) = experiment: MTT antiproliferative assay, HCT-116; type: cell-based; conditions: Homo sapiens, HCT-116; MTT, 48 h; read-out: Antiproliferative Activity GI50, Colon HCT-116
Procedure: as §1

Recombinant human HDAC8 = target: T2, Recombinant human HDAC8 (Homo sapiens, UniProt Q9BY41); experiment: HDAC-Glo I/II assay, HDAC8; type: biochemical; conditions: Class I HDAC; compounds reduced by TCEP prior to assay
T2 construct: purchased BPS Bioscience Inc
T2 sequence (Q9BY41 1-377): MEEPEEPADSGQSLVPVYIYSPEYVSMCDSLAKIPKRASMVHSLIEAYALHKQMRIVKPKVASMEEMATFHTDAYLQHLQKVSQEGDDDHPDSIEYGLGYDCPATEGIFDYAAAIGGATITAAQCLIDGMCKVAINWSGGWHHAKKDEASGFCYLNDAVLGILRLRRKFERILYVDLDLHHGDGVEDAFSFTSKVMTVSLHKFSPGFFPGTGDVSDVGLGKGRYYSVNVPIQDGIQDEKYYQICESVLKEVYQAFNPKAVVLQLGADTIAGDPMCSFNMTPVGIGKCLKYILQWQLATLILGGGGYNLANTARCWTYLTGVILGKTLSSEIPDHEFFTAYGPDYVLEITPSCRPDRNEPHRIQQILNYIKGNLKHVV
Procedure: as §2, §3, §4

Recombinant human HDAC3 = target: T3, Recombinant human HDAC3 (Homo sapiens, UniProt O15379); experiment: HDAC-Glo I/II assay, HDAC3; type: biochemical; conditions: Class I HDAC; compounds reduced by TCEP prior to assay
T3 construct: purchased BPS Bioscience Inc
Procedure: as §2, §3, §4

Recombinant human HDAC1 = target: T4, Recombinant human HDAC1 (Homo sapiens, UniProt Q13547); experiment: HDAC-Glo I/II assay, HDAC1; type: biochemical; conditions: for IC50: Class I HDAC, compounds reduced by TCEP prior to assay, read-out: IC50 of HDAC1; for Class I selectivity Ratio HDAC 1/HDAC8 / Class I vs. Class IIa Ratio HDAC 1/HDAC6: ratio of IC50 values
T4 construct: purchased BPS Bioscience Inc
Procedure: as §2, §3, §4

DU-145 (prostate cancer) = experiment: MTT antiproliferative assay, DU-145; type: cell-based; conditions: Homo sapiens, DU-145; MTT, 48 h; read-out: Antiproliferative Activity GI50, Prostate DU-145
Procedure: as §1

Recombinant human HDAC2 = target: T5, Recombinant human HDAC2 (Homo sapiens, UniProt Q92769); experiment: HDAC-Glo I/II assay, HDAC2; type: biochemical; conditions: Class I HDAC; compounds reduced by TCEP prior to assay
T5 construct: purchased BPS Bioscience Inc
Procedure: as §2, §3, §4

SKOV-3 (ovarian) = experiment: MTT antiproliferative assay, SKOV-3; type: cell-based; conditions: Homo sapiens, SK-OV-3; MTT, 48 h; read-out: Antiproliferative Activity GI50, Ovarian SKOV-3
Procedure: as §1

[3] = system: colon (HCT-116), cervical (HeLa), and renal (RFX393) tumor cell lines; experiment: MTT antiproliferative assay, all three tumor cell lines; type: cell-based; conditions: HCT-116, HeLa, RFX393; summary of Table 3; read-out: GI50 values against all three tumor cell lines
Procedure: as §1

T3 sequence (O15379 whole entry): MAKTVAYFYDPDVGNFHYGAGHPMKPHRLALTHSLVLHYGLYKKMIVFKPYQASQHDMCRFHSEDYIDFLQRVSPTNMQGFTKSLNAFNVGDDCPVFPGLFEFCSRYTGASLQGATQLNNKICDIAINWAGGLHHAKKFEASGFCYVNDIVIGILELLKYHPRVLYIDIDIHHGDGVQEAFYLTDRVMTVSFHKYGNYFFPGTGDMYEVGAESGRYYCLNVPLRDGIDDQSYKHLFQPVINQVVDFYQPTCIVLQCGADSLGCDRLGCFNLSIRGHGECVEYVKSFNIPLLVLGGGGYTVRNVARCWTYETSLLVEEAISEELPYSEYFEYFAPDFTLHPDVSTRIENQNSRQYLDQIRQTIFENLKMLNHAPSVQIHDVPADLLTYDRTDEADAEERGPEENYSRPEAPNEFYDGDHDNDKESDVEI
T3 sequence (Q9Y618 395-489 partner limits assumed): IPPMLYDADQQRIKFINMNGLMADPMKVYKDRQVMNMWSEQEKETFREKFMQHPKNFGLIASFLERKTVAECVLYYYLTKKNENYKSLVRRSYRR
T4 sequence (Q13547 whole entry): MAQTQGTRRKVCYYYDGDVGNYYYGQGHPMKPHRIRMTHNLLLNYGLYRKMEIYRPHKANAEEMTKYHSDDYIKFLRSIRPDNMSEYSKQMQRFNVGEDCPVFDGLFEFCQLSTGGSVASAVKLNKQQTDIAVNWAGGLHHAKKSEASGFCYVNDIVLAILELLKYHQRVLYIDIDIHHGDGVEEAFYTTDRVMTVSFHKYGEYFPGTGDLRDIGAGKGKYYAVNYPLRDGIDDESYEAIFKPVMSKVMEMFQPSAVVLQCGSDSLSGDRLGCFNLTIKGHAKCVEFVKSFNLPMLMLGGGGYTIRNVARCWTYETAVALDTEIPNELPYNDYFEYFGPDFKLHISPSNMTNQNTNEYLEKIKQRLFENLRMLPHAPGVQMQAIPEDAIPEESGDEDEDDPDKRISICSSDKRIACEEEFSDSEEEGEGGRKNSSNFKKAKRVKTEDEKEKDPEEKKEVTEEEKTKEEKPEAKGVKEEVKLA
T1 sequence (P56524 whole entry): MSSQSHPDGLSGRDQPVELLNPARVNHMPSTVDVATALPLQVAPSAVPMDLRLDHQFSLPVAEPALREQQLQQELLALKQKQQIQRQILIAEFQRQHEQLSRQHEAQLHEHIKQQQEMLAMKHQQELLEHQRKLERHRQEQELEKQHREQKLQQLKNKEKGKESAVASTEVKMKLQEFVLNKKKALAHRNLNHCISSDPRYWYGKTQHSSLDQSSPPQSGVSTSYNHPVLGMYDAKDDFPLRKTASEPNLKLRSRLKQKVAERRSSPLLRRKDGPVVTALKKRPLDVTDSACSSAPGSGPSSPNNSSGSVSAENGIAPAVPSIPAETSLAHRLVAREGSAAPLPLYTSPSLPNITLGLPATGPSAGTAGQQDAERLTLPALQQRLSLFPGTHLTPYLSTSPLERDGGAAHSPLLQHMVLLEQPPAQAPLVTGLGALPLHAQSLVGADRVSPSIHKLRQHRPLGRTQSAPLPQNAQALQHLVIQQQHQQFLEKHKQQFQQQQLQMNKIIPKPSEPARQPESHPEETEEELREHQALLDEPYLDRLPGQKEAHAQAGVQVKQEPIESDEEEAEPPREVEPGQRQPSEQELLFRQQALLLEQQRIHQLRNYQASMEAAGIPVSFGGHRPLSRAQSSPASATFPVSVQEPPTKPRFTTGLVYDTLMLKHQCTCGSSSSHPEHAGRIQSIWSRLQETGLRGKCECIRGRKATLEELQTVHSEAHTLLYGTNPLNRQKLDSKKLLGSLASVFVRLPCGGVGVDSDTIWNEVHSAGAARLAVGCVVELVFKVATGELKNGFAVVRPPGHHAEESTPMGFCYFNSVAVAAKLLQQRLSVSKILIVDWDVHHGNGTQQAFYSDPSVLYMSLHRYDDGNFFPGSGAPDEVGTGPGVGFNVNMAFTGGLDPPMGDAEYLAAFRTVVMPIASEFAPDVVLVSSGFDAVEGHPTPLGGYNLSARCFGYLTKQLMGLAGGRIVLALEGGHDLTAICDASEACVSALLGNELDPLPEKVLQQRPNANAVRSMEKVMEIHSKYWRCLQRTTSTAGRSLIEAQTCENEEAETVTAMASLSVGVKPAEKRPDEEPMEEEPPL
T5 sequence (Q92769 whole entry): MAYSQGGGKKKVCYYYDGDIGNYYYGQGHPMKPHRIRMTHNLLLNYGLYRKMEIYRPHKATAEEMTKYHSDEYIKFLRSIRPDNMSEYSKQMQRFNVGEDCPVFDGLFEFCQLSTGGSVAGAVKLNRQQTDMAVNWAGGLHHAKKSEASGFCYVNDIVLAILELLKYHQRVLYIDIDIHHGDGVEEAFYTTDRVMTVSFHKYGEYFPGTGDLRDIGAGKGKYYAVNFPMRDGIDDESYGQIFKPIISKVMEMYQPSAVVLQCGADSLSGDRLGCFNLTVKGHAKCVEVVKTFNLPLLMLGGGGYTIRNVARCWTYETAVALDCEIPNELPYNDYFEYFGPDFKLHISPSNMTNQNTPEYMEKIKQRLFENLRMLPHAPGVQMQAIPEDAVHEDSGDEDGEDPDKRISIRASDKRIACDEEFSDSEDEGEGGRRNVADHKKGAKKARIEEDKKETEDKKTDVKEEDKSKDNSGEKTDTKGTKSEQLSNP

| Structure (SMILES) | GI50 [1] [µM] | IC50 (Recombinant human HDAC4) [µM] | GI50 (RFX393 (renal)) [µM] | MTD at 2 weeks (in vivo) [mg/kg] | GI50 (HeLa (cervical cancer)) [µM] | Solubility [2] | GI50 (COLO-205 (colon cancer)) [µM] | GI50 (HCT-116 (colon cancer)) [µM] | IC50 (Recombinant human HDAC8) [µM] | IC50 (Recombinant human HDAC3) [µM] | IC50 (Recombinant human HDAC1) [µM] | Class I selectivity Ratio HDAC 1/HDAC8 (Recombinant human HDAC1) | Class I vs. Class IIa Ratio HDAC 1/HDAC6 (Recombinant human HDAC1) | GI50 (DU-145 (prostate cancer)) [µM] | IC50 (Recombinant human HDAC2) [µM] | GI50 (SKOV-3 (ovarian)) [µM] | GI50 [3] [µM] |
| --- | --- | --- | --- | --- | --- | --- | --- | --- | --- | --- | --- | --- | --- | --- | --- | --- | --- |
| CCC(C)[C@H]1NC(=O)[C@H]2CSSCC/C=C/[C@H](CC(=O)N[C@H](CCSC)C(=O)N2)OC(=O)C[C@@H]1O (stereo partly drawn) [TDP-A, Thailandepsin A, reference compound] | 0.003 | 20.5 | 0.00047 | 6.25 | 0.00036 | Not soluble | 0.0035 | 0.00093 | 8.44 | 0.0077 | 0.0024 | 0.00065 | 0.0088 | 0.001 | 0.0081 | 0.002 | – |
| CCC(C)[C@H]1NC(=O)[C@H]2CSSCC/C=C/[C@H](CC(=O)N[C@H](CCSC)C(=O)N2)OC(=O)C[C@@H]1OC(C)=O (stereo partly drawn) [TDC3] | – | 40.5 | 0.107 | > 200 | 0.332 | Not soluble | – | 0.12 | 10 | 0.245 | 0.0027 | 0.00006 | 0.0020 | – | 0.0442 | – | – |
| CCC(C)C(NC(=O)CC(O)/C=C/CCS)C(=O)O (stereo not drawn) [TDF4] | – | > 1000 | 4.1 | > 200 | 4.8 | Mostly soluble | – | 3.7 | 43.9 | 0.714 | 0.0039 | – | – | – | – | – | ≤ 5 |
| CC(C)[C@H](NC(=O)CC(O)/C=C/CCS)C(=O)O (stereo partly drawn) [TDF6] | – | > 1000 | 3.1 | > 200 | 3.6 | Soluble | – | 1.3 | 16.6 | 0.0416 | 0.0035 | 0.00003 | – | – | 0.111 | – | ≤ 4 |
| CCCC[C@H]1NC(=O)C[C@H]2/C=C/CCSSC[C@@H](NC1=O)C(=O)N[C@H](C(C)CC)[C@@H](O)CC(=O)O2 (stereo partly drawn) [TDP-B, Thailandepsin B, reference compound] | – | 27.9 | 0.0022 | 6.25 | 0.0021 | Not soluble | – | 0.002 | 10.9 | 0.0482 | 0.0022 | 0.00026 | 0.0034 | – | 0.0256 | – | – |
| CCC(C)[C@H]1NC(=O)[C@H]2CSSCC/C=C/[C@H](CC(=O)N[C@H](CCSC)C(=O)N2)OC(=O)C[C@@H]1OC(=O)c1ccccc1 (stereo partly drawn) [TDC1] | 0.04 | ~500 | 0.0351 | 50 | 0.225 | Not soluble | 0.07 | 0.0247 | 3.67 | 0.64 | 0.0109 | 0.00252 | 0.0020 | 0.08 | 0.051 | 0.03 | – |
| CCC(C)[C@H]1NC(=O)[C@H]2CSSCC/C=C/[C@H](CC(=O)N[C@H](CCSC)C(=O)N2)OC(=O)C[C@@H]1OCCC=O (stereo partly drawn) [TDC2] | – | 135 | 0.051 | 12.5 | 0.141 | Not soluble | – | 0.056 | 4.33 | 0.701 | 0.0096 | 0.00096 | 0.0064 | – | 0.037 | – | – |
